Source: BindingDB's records for patent US20250236619 (Chia Tai Tianqing Pharmaceutical Group Co., 2025)

Biological target: Mitogen-activated protein kinase kinase kinase kinase 1 (Homo sapiens, UniProt Q92918)
Assay: Assay for In Vitro Inhibitory Activity Against HPK1 Kinase
Experimental: A kinase buffer (Enzymatic buffer 5×) was diluted to 1×, and 10 mM MgCl2, 1 mM DTT, and 0.005% Tween 20 were added. A 100 ng/μL HPK1 (Life technology) stock solution was diluted with the kinase buffer to obtain a 1.67×, 1.67 ng/μL working solution (final concentration: 1 ng/μL), and the working solution was seeded in a 384-well plate at 6 μL/well. Different compounds dissolved in DMSO were added to the wells using a nanoliter pipettor to obtain final concentrations of the compounds of 1000 nM to 0.244 nM (4-fold serial dilution, 7 concentrations in total), and blank control wells (without enzyme) and negative control wells (with enzyme, plus vehicle DMSO) were set; the wells were set in duplicate. After the enzyme and the compounds were incubated at room temperature for 1 h, a 5×, 5 mM ATP dilution (final concentration: 1 mM) in the kinase buffer was mixed with a 5×, […] (Cisbio, STK Substrate 1-biotin; final concentration: 500 nM) in equal volume, and the mixture was added to the plate at 4 µL/well. The plate was sealed with a film and then incubated at room temperature for 2 h. An assay antibody solution was prepared by mixing the antibody STK Antibody-cryptate (Cisbio, 5 μL/test) and a 4×, 500 nM Streptavidin-XL665 (Cisbio; final concentration: 125 nM) in equal volume and added to the plate at 10 μL/well. The plate was incubated at room temperature for 1 h. The signal values ([…]) were measured using a PE Envision multimode microplate reader, and IC50 was calculated by four-parameter fitting.

Mitogen-activated protein kinase kinase kinase kinase 1, sequence (Q92918 whole entry): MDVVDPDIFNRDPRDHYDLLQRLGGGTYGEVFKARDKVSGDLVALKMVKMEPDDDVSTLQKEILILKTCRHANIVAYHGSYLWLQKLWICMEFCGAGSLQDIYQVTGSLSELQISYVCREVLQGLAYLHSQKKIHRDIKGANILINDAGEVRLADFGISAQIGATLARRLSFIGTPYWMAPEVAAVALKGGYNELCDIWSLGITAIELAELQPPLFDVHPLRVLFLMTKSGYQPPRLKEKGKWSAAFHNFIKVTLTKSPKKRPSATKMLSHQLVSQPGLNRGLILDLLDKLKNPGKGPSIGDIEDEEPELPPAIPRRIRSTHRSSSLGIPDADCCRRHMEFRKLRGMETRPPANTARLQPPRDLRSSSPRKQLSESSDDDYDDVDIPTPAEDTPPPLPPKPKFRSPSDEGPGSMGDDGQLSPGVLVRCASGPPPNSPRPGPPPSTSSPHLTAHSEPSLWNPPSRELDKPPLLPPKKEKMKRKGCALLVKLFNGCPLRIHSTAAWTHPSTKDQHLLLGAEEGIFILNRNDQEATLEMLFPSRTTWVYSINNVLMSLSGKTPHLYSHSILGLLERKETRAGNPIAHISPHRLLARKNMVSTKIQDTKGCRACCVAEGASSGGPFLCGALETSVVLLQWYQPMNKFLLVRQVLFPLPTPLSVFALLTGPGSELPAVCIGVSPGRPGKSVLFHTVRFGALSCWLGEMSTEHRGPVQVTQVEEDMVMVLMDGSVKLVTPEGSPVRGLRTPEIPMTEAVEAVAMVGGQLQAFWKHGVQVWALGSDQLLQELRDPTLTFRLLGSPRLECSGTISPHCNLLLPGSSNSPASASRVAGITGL

Row | SMILES | IC50 [nM]
1 | CN(C)Cc1nc(Nc2ccc(-c3ncnc4[nH]c5c(c34)CCC5)c3c2C(=O)NC3)ccc1C1CCOCC1 [US20250236619, Compound I-24] | 11
2 | CN(C)Cc1nc(Nc2cnc(-c3nnc4ccc5c(n34)CCC5)c3c2C(=O)NC3)ccc1C1CCOCC1 [US20250236619, Compound I-25] | 32
3 | CN(C)Cc1nc(Nc2ccc(-c3cnc4ccc5c(n34)CCO5)c3c2C(=O)NC3)ccc1C1CCOCC1 [US20250236619, Compound I-35] | 6.4
4 | CN(C)Cc1nc(Nc2cnc(-c3cnn4ccc5occc5c34)c3c2C(=O)NC3)ccc1N1CCOCC1 [US20250236619, Compound I-47] | 4.7
5 | CN(C)Cc1nc(Nc2ccc(-c3cnc4ccc5occc5n34)c3c2C(=O)NC3)ccc1N1CCN(C)C1=O [US20250236619, Compound I-50] | 29
6 | CN(C)Cc1nc(Nc2ccc(-c3cnc4ccc5occc5n34)c3c2C(=O)NC3)ccc1N1CCCC1=O [US20250236619, Compound I-52] | 36
7 | [2H]C([2H])(c1nc(Nc2ccc(-c3cnn4c3CC3(CC3)C4)c3c2C(=O)NC3)ccc1C1CCOCC1)N(C)C [US20250236619, Compound I-53] | 2.7
8 | CN(C)Cc1nc(Nc2ccc(-c3cnc4cnc5occc5n34)c3c2C(=O)NC3)ccc1C1CCOC1 (stereo not drawn) [US20250236619, Compound I-54] | 6.6
9 | CN(C)Cc1nc(Nc2cnc(-c3cnn4c3CC3(CC3)C4)c3c2C(=O)NC3)ccc1C1CCOCC1 [US20250236619, Compound I-55] | 15
10 | O=C1NCc2c(-c3cnn4ccc5occc5c34)ccc(Nc3ccc(N4CCOCC4)c([C@H]4CCCN4)n3)c21 [US20250236619, Compound I-57] | 17
11 | CN(C)Cc1nc(Nc2ccc(-c3cnc4cnc5occc5n34)c3c2C(=O)NC3)ccc1C1CC(=O)N(C)C1 (stereo not drawn) [US20250236619, Compound I-58] | 5.6
12 | CN(C)Cc1nc(Nc2ccc(-c3cnn4ccc5occc5c34)c3c2C(=O)NC3)ccc1C1CCCO1 (stereo not drawn) [US20250236619, Compound I-64] | 2.9
13 | CN(C)Cc1nc(Nc2ccc(-c3cnc4cnc5occc5n34)c3c2C(=O)NC3)ccc1C1CCCO1 (stereo not drawn) [US20250236619, Compound I-65] | 21
14 | CN(C)Cc1nc(Nc2ccc(-c3cnn4c3CC3(CC3)C4)c3c2C(=O)NC3)ccc1C1CCN(C)C(=O)C1 (stereo not drawn) [US20250236619, Compound I-67] | 4.6
15 | CC(=O)N(C)c1ccc(Nc2ccc(-c3cnn4ccc5occc5c34)c3c2C(=O)NC3)nc1CN(C)C [US20250236619, Compound I-70] | 7.5
16 | CN(C)Cc1nc(Nc2ccc(-c3cnc4cnc5occc5n34)c3c2C(=O)NC3)ccc1C1CCN(C)CC1 [US20250236619, Compound I-80] | 2.8
17 | CNCc1nc(Nc2ccc(-c3cnn4ccc5occc5c34)c3c2C(=O)NC3)sc1C1CCOCC1 [US20250236619, Compound I-85] | 3.8

Stronger by IC50, values ahead:

Row | IC50 [nM] | SMILES
18 | 1.7 | [2H]C([2H])(c1nc(Nc2cnc(-c3ccnc4c3c3c(n4C)CCC3)c3c2C(=O)NC3)ccc1C1CCOCC1)N(C)C [US20250236619, Compound I-17]
19 | 2.1 | CN(C)Cc1nc(Nc2ccc(-c3cnn4c3CC3(CC3)C4)c3c2C(=O)NC3)ccc1C1CCOCC1 [US20250236619, Compound I-34]
20 | 1.7 | CN(C)Cc1nc(Nc2ccc(-c3cnn4ccc5occc5c34)c3c2C(=O)NC3)ccc1C1CCOCC1 [US20250236619, Compound I-38]
21 | 2.1 | CN(C)Cc1nc(Nc2cnc(-c3cnn4ccc5occc5c34)c3c2C(=O)NC3)ccc1C1CCOCC1 [US20250236619, Compound I-46]
22 | 2.6 | CN(C)Cc1nc(Nc2ccc(-c3cnc4cnc5occc5n34)c3c2C(=O)NC3)ccc1C1CCOCC1 [US20250236619, Compound I-48]
23 | 2.3 | CN(C)Cc1nc(Nc2ccc(-c3cnn4ccc5occc5c34)c3c2C(=O)NC3)ccc1C1CC(=O)N(C)C1 (stereo not drawn) [US20250236619, Compound I-59]
24 | 2.5 | CN(C)Cc1nc(Nc2ccc(-c3cnc4ccc5occc5n34)c3c2C(=O)NC3)ccc1C1CCN(C)C(=O)C1 (stereo not drawn) [US20250236619, Compound I-66]
25 | 1.8 | CN(C)Cc1nc(Nc2ccc(-c3cnn4ccc5occc5c34)c3c2C(=O)NC3)ccc1N1CCN(C)C(=O)C1 [US20250236619, Compound I-76]
26 | 2 | CN(C)Cc1nc(Nc2ccc(-c3cnn4ccc5occc5c34)c3c2C(=O)NC3)ccc1-c1ccn(C)c(=O)c1 [US20250236619, Compound I-81]
27 | 2 | CN(C)Cc1nc(Nc2ccc(-c3cnn4ccc5occc5c34)c3c2C(=O)NC3)ccc1C1CCN(C)CC1 [US20250236619, Compound I-83]
28 | 2.6 | CN(C)Cc1nc(Nc2ccc(-c3ccnc4c3c3c(n4C)CCC3)c3c2C(=O)NC3)ccc1C1CCN(C)C(=O)C1 (stereo not drawn) [US20250236619, Compound I-84]
